Patent US20070082930A1, “Pharmaceutical composition comprising a p2x7 receptor antagonist and a nonsteroidal anti-inflammatory drug” (ASTRAZENECA AB, priority 2003, published 2007)

Test system: streptococcal cell wall-induced arthritis
Assay: Rat streptococcal cell wall (SCW)-induced arthritis: ankle swelling and von Frey mechanical threshold
Type: in vivo
Conditions: oral bid, P2X7 antagonist 1 30 mg/kg
Excerpt: Assessment of Anti-Inflammatory Activity of the COX-2 Inhibitor, Celecoxib/P2X7 Antagonist Combinations in Rat Streptococcal Cell Wall-Induced Arthritis.^1 1. Experimental procedure based on that described by Carlson R P, Jacobsen P B, ‘Comparison of adjuvant and streptococcal cell wall-induced arthritis in the rat’in Morgan D W, Marshall L A, editors; In Vivo Models of Inflammation. Basel: Birkhauser Verlag; 1999.
Streptococcal cell wall (SCW)-induced arthritis was induced in the left ankle of female Lewis rats. Animals were sensitised by intra-articular injection of 5 μg (in 20 μL) SCW (Lee Laboratories) into the left ankle. Ankle swelling was assessed 3 days after injection and non-responders (animals with no apparent ankle swelling) were rejected. Responding animals were randomly allocated to the test groups.
Arthritis was induced 21 days after sensitisation by intravenous (iv) injection of SCW (100 μg in 500 μL saline). Animals were monitored and assessed on a daily basis through to term-ination 6 days after induction. The rats were housed on sawdust and provided with food and water ad libitum.
In this example the P2X7 antagonist 1 was orally dosed at 30 mg/kg (4 mL/kg, bid). The compound was dosed as a suspension in 1% (w/v) methylcellulose in deionised water and was freshly prepared on a daily basis. Dosing commenced 1 day prior to induction of arthriis and continued on a daily basis through to termination on day 6 post-induction. Celecoxib (3 mg/kg) was dosed orally under the same regime as for P2X7 antagonist 1, administration of celecoxib occurring immediately after administration of P2X7 antagonist 1.
Ankle diameters were measured with vernier callipers on a daily basis from day −1. Mechanical thresholds were assessed using von Frey filaments on days −1, 1, 3 and 5. The filaments were applied in increasing weights to the ankle region on the footpad of both feet. The first filament to induce a withdrawal response was considered to be the threshold.
Effects on ankle swelling and mechanical threshold were calculated on an area under the curve (AUC) basis, as the sum of the differences from individual day −1 values. The size. and direction of the interaction was calculated and data analysis performed by ANOVA followed by Dunnett's test on the AUC data (SAS version 8.01).
The anti-inflammatory activity of the COX-2 inhibitor, rofecoxib in combination with a P2X7 antagonist was assesesd using the protocol described in Example 3A. The P2X7 antagonist 1 was dosed orally at 30 mg/kg (4 mL/kg, bid) as a suspension in 1% (w/v) methylcellulose in deionised water, together with rofecoxib (Merck Sharp & Dohme Limited) (1 mg/kg) in a single formulation. Dosing commenced 1 day prior to induction of arthritis and continued on a daily baisis through to termination on day 6 post-induction.
The anti-inflammatory activity of the COX-2 inhibitor, valdecoxib in combination with a P2X7 antagonist was assesesd using the protocol described in Example 3A. The P2X7 antagonist 1 was orally dosed at 30 mg/kg (4 mL/kg, bid) as a suspension in 1% (w/v) methylcellulose in deionised water, together with valdecoxib (Pfizer) (1 mg/kg) in a single formulation. Dosing commenced 1 day prior to induction of arthritis and continued on a daily baisis through to termination on day 6 post-induction.

[1] = Example 3A, female Lewis rats, day -1 to day 6 post-induction, celecoxib 3 mg/kg, given one immediately after the other
[2] = Example 3B, day -1 to day 6, rofecoxib 1 mg/kg, single formulation
[3] = Example 3C, day -1 to day 6, valdecoxib 1 mg/kg, single formulation

Row | SMILES | % reduction of AUC (compared to arthritic vehicle control) Ankle swelling [1] [%] | % reduction of AUC (compared to arthritic vehicle control) Von Frey threshold [1] [%] | % reduction of AUC (compared to arthritic vehicle control) Ankle swelling [2] [%] | % reduction of AUC (compared to arthritic vehicle control) Von Frey threshold [2] [%] | % reduction of AUC (compared to arthritic vehicle control) Ankle swelling [3] [%] | % reduction of AUC (compared to arthritic vehicle control) Von Frey threshold [3] [%]
1 | Cc1ccc(-c2cc(C(F)(F)F)nn2-c2ccc(S(N)(=O)=O)cc2)cc1 [Celecoxib, 4-[5-(4-methylphenyl)-3-(trifluoromethyl)-1H-pyrazol-1-yl]benzenesulfonamide] | 63.0 ± 3.9 | 43.2 ± 15.9 | – | – | – | –
2 | Cc1ccc(C(=O)N2CC3CNCC(C2)O3)cc1NC(=O)CC12CC3CC(CC(C3)C1)C2.Cl [P2X7 antagonist 1, N-[2-Methyl-5-(9-oxa-3,7-diazabicyclo[3.3.1]non-3-ylcarbonyl)phenyl]-tricyclo[3.3.1.1^3,7]decane-1-acetamide, hydrochloride] | 28.5 ± 13.5 | 21.1 ± 10.9 | 2.6 ± 11.6 | 26.5 ± 11.4 | 2.6 ± 11.6 | 26.5 ± 11.4
3 | CS(=O)(=O)c1ccc(C2=C(c3ccccc3)C(=O)OC2)cc1 [Rofecoxib, 4-[4′-(methylsulfonyl)phenyl]-3-phenyl-(5H)-furanone] | – | – | 50.6 ± 4.7 | 29.8 ± 7.8 | – | –
4 | Cc1onc(-c2ccccc2)c1-c1ccc(S(N)(=O)=O)cc1 [Valdecoxib, 4-(5-methyl-3-phenyl-4-isoxazolyl)benzenesulfonamide] | – | – | – | – | 52.8 ± 3.1 | 37.8 ± 8.6
